Patent US20250320215A1, “SALTS OF N-[4-(4-[[2-(DIMETHYLAMINO)ETHYL]AMINO]-3-METHYL-1H-PYRAZOLO[3,4-D]PYRIMIDIN-6-YL)-2-FLUOROPHENYL]-2,5-DIFLUOROBENZENESULFONAMIDE AND CRYSTALLINE FORMS THEREOF” (THRYV THERAPEUTICS INC, priority 2022, published 2025)
Where two headings read alike, the source gives them in different places.

How the values were obtained:
Assay type in all cases: physicochemical
[1] = Estimated solubility by solvent addition method via visual assessment; conditions: thermodynamic from solid, room temperature, read-out: Solubility
Experimental: Solubility of Compound 3 Form B was estimated in 30 solvents at room temperature and in 9 organic solvents at 70° C. using solvent addition method via visual assessment.
Protocol: about 3 mg of Compound 3 Form B was weighed into a sample vial and the solvent was added gradually with vortex until the drug solution was clear by observation or a total of 2 mL solvent was added. Then, the estimated solubility (mg/mL) was calculated.
Solubility of Compound 4, Form B was estimated in 18 solvents at room temperature using solvent addition method via visual assessment. About 3 mg of Compound 4, Form B was weighed into a sample vial and the solvent was added gradually with vortex until the solution was clear by observation or a total of 2 mL solvent was added. Then, the estimated solubility (mg/mL) was calculated.

[2] = Dynamic vapor sorption/desorption (DVS) with post-DVS XRPD
Experimental: Moisture sorption/desorption data were collected on a DVS Intrinsic. 7-20 mg of a sample was placed into a tared sample chamber and automatically weighed. The anhydrates were analyzed with the following setting parameters:
DVS experiments (FIGS. 17, 19, 21, 34, 35, 48 and 50) and XRPD post-DVS experiments (FIGS. 18, 20, 22, 36, 49 and 51) were conducted in order to study the deliquescence behaviour of the crystalline salts upon expose to humidity.

[3] = Water activity study (competition of forms, XRPD); conditions: room temperature
Experimental: Water activity study was performed using Compound 3 Form B (anhydrate) as the input material in EtOH/Water with different water content at RT. About 5 mg of Compound 3, Form B was used to prepare saturated solutions and the solutions were filtered by syringe at RT. 5 mg of Compound 3, Form D were added in the 1 mL of filtrate, and the suspension was slurried at RT for 3 and 7 days. The solids collected after filtration were analyzed by XRPD.
Protocol: excess amount of Compound 4 Form B was used to prepare saturated solutions. 6-8 mg each of Compound 4 Form B and Form D were added in the solutions. The suspension was slurried at room temperature for the corresponding times. Residual solids were collected by filtration with syringe filter, and characterized by XRPD.

[4] = Slurry study evaluated by XRPD
Experimental: About 20 mg of Compound 3, Form B was weighed into a sample vial and then 1 mL of solvent was added to make a suspension. The suspension was stirred at room temperature or 50° C. for 3 days and 11 days. Then, the wet solid was collected by filtration and analyzed by XRPD.
20-30 mg of Compound 4 Form B was added in 1 mL of selected solvents at room temperature or 50° C. The suspension was slurried at room temperature or 50° C. for 3 days and 11 days. The wet solids collected from filtration were examined by XRPD. There were four crystal forms obtained by slurrying, including di-mesylate Forms B, C and D as well as mono-mesylate Form G.

[5] = Thermal treatment (heat-cool cycle by DSC, XRPD of resulting solids); conditions: Heated to 130° C. at 10° C./min, and cooled to 25° C. at 5° C./min
Experimental: Compound 3, Form E was treated with heat-cool cycle by DSC. The resulted solids were characterized by XRPD. Compound 3, Form E, was converted to Compound 3, Form D after desolvation.
Compound 4 Form B was treated with heat-cool cycle by DSC. The resulted solids were checked by XRPD. […] The water was excluded at elevated temperature, then entered in the crystal lattice again at room temperature.
Compound 4 Form C and trace Form B was treated with heat-cool cycle by DSC. The resulted solids were checked by XRPD. The sample was converted to low crystalline (LC) Form B after heating to 175° C.
Compound 4 Form D was treated with heat-cool cycle by DSC. The resulted solids were checked by XRPD. The sample kept unchanged after heating to 140° C., but was converted to a new low crystalline form after heating to 210° C. which was assigned to Form F.

[6] = slurry in ACN/Water (9/1, v/v) at RT

Cc1n[nH]c2nc(-c3ccc(NS(=O)(=O)c4cc(F)ccc4F)c(F)c3)nc(NCCN(C)C)c12 [Compound 4 Form B]
Form B: XRPD Result Day 3/Wet ([4]; slurry in ACN at 50° C.) | XRPD Result Day 11/Wet ([4]; slurry in ACN at 50° C.) | XRPD Result Day 3/Wet ([4]; slurry in ACN at RT) | XRPD Result Day 11/Wet ([4]; slurry in ACN at RT) | XRPD Result Day 3/Wet ([4]; slurry in DCM at 50° C.) | XRPD Result Day 3/Wet ([4]; slurry in MeOH at RT) | XRPD Result Day 11/Wet ([4]; slurry in MeOH at RT) | XRPD Resulting Form [5]
Form D: XRPD Result Day 3/Wet ([4]; slurry in 2-Me THF at 50° C.) | XRPD Result Day 11/Wet ([4]; slurry in 2-Me THF at 50° C.) | XRPD Result Day 3/Wet ([4]; slurry in 2-Me THF at RT) | XRPD Result Day 11/Wet ([4]; slurry in 2-Me THF at RT) | XRPD Result Day 3/Wet [4, 6] | XRPD Result Day 11/Wet [4, 6] | XRPD Result Day 11/Wet ([4]; slurry in Acetone at 50° C.) | XRPD Result Day 11/Wet ([4]; slurry in Acetone at RT) | XRPD Result Day 3/Wet ([4]; slurry in DCM at RT) | XRPD Result Day 11/Wet ([4]; slurry in DCM at RT) | XRPD Result Day 3/Wet ([4]; slurry in EA at 50° C.) | XRPD Result Day 11/Wet ([4]; slurry in EA at 50° C.) | XRPD Result Day 11/Wet ([4]; slurry in EA at RT) | XRPD Result Day 3/Wet ([4]; slurry in EtOH at RT) | XRPD Result Day 11/Wet ([4]; slurry in EtOH at RT) | XRPD Result Day 3/Wet ([4]; slurry in IPA at 50° C.) | XRPD Result Day 11/Wet ([4]; slurry in IPA at 50° C.) | XRPD Result Day 3/Wet ([4]; slurry in IPA at RT) | XRPD Result Day 11/Wet ([4]; slurry in IPA at RT) | XRPD Result Day 3/Wet ([4]; slurry in IPAC at 50° C.) | XRPD Result Day 11/Wet ([4]; slurry in IPAC at 50° C.) | XRPD Result Day 3/Wet ([4]; slurry in IPAC at RT) | XRPD Result Day 11/Wet ([4]; slurry in IPAC at RT) | XRPD Result Day 3/Wet ([4]; slurry in MEK at 50° C.) | XRPD Result Day 11/Wet ([4]; slurry in MEK at 50° C.) | XRPD Result Day 3/Wet ([4]; slurry in MEK at RT) | XRPD Result Day 11/Wet ([4]; slurry in MEK at RT) | XRPD Result Day 3/Wet ([4]; slurry in MTBE at 50° C.) | XRPD Result Day 11/Wet ([4]; slurry in MTBE at RT) | XRPD Result Day 11/Wet ([4]; slurry in THF at RT)
≤ 0.08: water activity (aw) at which the form is stable / the most stable form [3]
< 1500 µg/mL: solubility ([1]; organic solvent or mixture, 2-Me THF) | solubility ([1]; organic solvent or mixture, ACN) | solubility ([1]; organic solvent or mixture, Acetone) | solubility ([1]; organic solvent or mixture, DCM) | solubility ([1]; organic solvent or mixture, EA) | solubility ([1]; organic solvent or mixture, IPA) | solubility ([1]; organic solvent or mixture, IPAC) | solubility ([1]; organic solvent or mixture, MEK) | solubility ([1]; organic solvent or mixture, MTBE) | solubility ([1]; organic solvent or mixture, THF)
15000 to 20000 µg/mL: solubility ([1]; organic solvent or mixture, ACN/Water (9/1, v/v))
9.16 wt %: wt % gain (DVS) ([2]; at 80% RH (25° C.))
Mono-mesylate Form G was obtained.: XRPD Result ([4]; slurry in Water at RT or 50° C. for 3 days)
Form C: XRPD Result Day 3/Wet ([4]; slurry in Acetone at 50° C.) | XRPD Result Day 3/Wet ([4]; slurry in THF at 50° C.) | XRPD Result Day 3/Wet ([4]; slurry in THF at RT)
75000 to 150000 µg/mL: solubility ([1]; organic solvent or mixture, DMA) | solubility ([1]; organic solvent or mixture, MeOH/Water (9/1, v/v)) | solubility ([1]; Water)
12000 to 20000 µg/mL: solubility ([1]; organic solvent or mixture, MeOH)
3750 to 7500 µg/mL: solubility ([1]; organic solvent or mixture, EtOH)
9.16%: water uptake (DVS) ([2]; at 80% RH, 25° C.)
hygroscopic: hygroscopicity [2]
Reversible: Reversibility (DVS) ([2]; sorption/desorption)
> 150000 µg/mL: solubility ([1]; organic solvent or mixture, DMSO) | solubility ([1]; organic solvent or mixture, NMP)
Hygroscopic: Comments: hygroscopicity (DVS) [2]
No change: Post-DVS XRPD ([2]; XRPD after DVS versus before)
